≈ marks a conversion by molar mass, not a printed value.

One may read the kinetic solubility as the concentration staying in solution when a stock, usually in DMSO, is diluted into the medium.

The conditions of this data set: buffer; pH 7.4; 200.0 µM.
For `O=S(=O)(c1ccc(=S)[nH]c1)N1CCN(Cc2ccccc2)CC1`, the solubility (kinetic) was above 52.4 µg/mL.

Consider `CN1C(=S)SC(/[N+]([O-])=C\c2ccccc2F)C1(C)C` (configuration not stated), for which the solubility (kinetic) is above 44.8 µg/mL.

In turn, `CC1(C(=O)Nc2ccc(S(=O)(=O)Nc3ncccn3)cc2)CCCC1` came in with a kinetic solubility above 54.1 µg/mL.

For `COc1ccc(OC)c(NC(=S)N2CCCC2)c1`, the kinetic solubility was above 40 µg/mL.

In turn, `CCOC(=O)C1(CC2CC2)CCN(S(=O)(=O)/C=C/c2ccccc2)CC1` showed a kinetic solubility of 3.6 µg/mL (≈ 9.54 µM).

The compound `COc1nc(Nc2ccccc2F)nc(OC)n1` yielded a solubility (kinetic) above 37.5 µg/mL.

`CCc1ccc(OCC(=O)Nc2ccncc2)cc1`: the kinetic solubility was above 38.4 µg/mL.

With `Cc1ccc(C(=O)/C=C/c2ccc3ncccc3c2)cc1`, the solubility (kinetic) turned out to be 1 µg/mL (≈ 3.66 µM).

Turning to `O=C(CC(=O)NCCc1ccccc1)NCCc1ccccc1`, the solubility (kinetic) was above 46.6 µg/mL.

Compound `CCOc1ccc(/C=C(\C(=O)O)c2ccc(S(=O)(=O)N3CCCCC3)s2)cc1OC` returned a solubility (kinetic) above 67.7 µg/mL.

Regarding `COc1ccc(-c2cc(C(=O)NC3CCCC3)c3ccccc3n2)cc1OC`, the kinetic solubility was found to be 1.6 µg/mL (≈ 4.25 µM).

Take `O=C(NCC1CCCO1)c1cc2c(s1)CCC2` (configuration not stated): the kinetic solubility was above 37.7 µg/mL.

For the compound `CC(C)C1C(=O)CC(c2ccccc2)NC1c1ccccc1` (configuration not stated), the solubility (kinetic) was 1.6 µg/mL (≈ 5.45 µM).

Consider `CCN(CC)CC(O)COC(c1ccccc1)c1ccccc1` (configuration not stated), for which the solubility (kinetic) turned out to be 41.8 µg/mL (≈ 133 µM).

Turning to `COc1cccc(Nc2nc(-c3cccnc3)cs2)c1`, the kinetic solubility is 1.3 µg/mL (≈ 4.59 µM).

`CN1CCN(S(=O)(=O)c2ccc([N+](=O)[O-])cc2)CC1` yielded a solubility (kinetic) above 42.8 µg/mL.

With `Nc1nccc(-c2cccs2)n1`, the solubility (kinetic) is above 26.6 µg/mL.

Regarding `COc1ccccc1CNC(=S)NCc1ccc(Cl)cc1`, the kinetic solubility stood at 11.8 µg/mL (≈ 36.8 µM).

`S=c1nc(NCc2ccc3c(c2)OCO3)c2ccccc2[nH]1` yielded a solubility (kinetic) of 0.6 µg/mL (≈ 1.93 µM).

Consider `O=S(=O)(Nc1ccc2c(c1)OCCO2)c1c(F)cccc1F`, for which the kinetic solubility was 47.8 µg/mL (≈ 146 µM).

In the case of `NC(=O)C1CCCN1` (configuration not stated), the kinetic solubility is above 17.1 µg/mL.

In turn, `O=C(O)c1ccc(OCC(O)Cn2c3ccccc3c3ccccc32)cc1` (configuration not stated) came in with a solubility (kinetic) above 54.2 µg/mL.

Compound `CCOC(=O)c1ccc(-n2c(CC)nc3ccccc3c2=O)cc1` yielded a solubility (kinetic) of 1.4 µg/mL (≈ 4.34 µM).

In the case of `CCc1ccccc1NC(=S)N(CCN(C)C)C(C)c1cccnc1` (configuration not stated), the solubility (kinetic) turned out to be 50.9 µg/mL (≈ 143 µM).

In turn, `Cc1ccc(C(=O)COC(=O)CN2C(=O)C3C4CCC(C4)C3C2=O)cc1C` (configuration not stated) gave a solubility (kinetic) of 46.2 µg/mL (≈ 125 µM).

As to `Cc1ccc(C)c(S(=O)(=O)N(C)Cc2cccs2)c1`, the solubility (kinetic) came out at 9.9 µg/mL (≈ 33.5 µM).

`O=C(CN1CCN(Cc2ccccc2Cl)CC1)N/N=C/c1ccccn1`: the solubility (kinetic) was above 55.8 µg/mL.

The compound `CN(Cc1cccs1)C(=O)COc1cccc2c1OC(C)(C)C2` gave a solubility (kinetic) above 49.7 µg/mL.

For `CCCC(=O)NC(c1ccc(Cl)cc1)c1ccc2cccnc2c1O` (configuration not stated), the kinetic solubility was determined as 0.4 µg/mL (≈ 1.13 µM).

Take `O=C(COC(=O)c1ccco1)Nc1ccc2[nH]c(=O)[nH]c2c1`: the kinetic solubility is 9.3 µg/mL (≈ 30.9 µM).

Take `Cc1sc2nc(-c3ccc(Br)cc3)oc(=O)c2c1C`: the kinetic solubility is below 0.7 µg/mL.

As for `Nc1nc(Nc2ccccc2)nc(NC2CCCCC2)c1[N+](=O)[O-]`, the kinetic solubility was below 0.1 µg/mL.

`O=S(=O)(Nc1ccccc1O)c1cccc2cccnc12`: the solubility (kinetic) is 43 µg/mL (≈ 143 µM).

For `OC(CNCc1ccccc1)c1ccccc1` (configuration not stated), the solubility (kinetic) is above 34.1 µg/mL.

Consider `Cc1[nH]c2ccccc2c1C(O)CN1CCC2(CC1)OCCO2` (configuration not stated), for which the kinetic solubility is above 47.5 µg/mL.

The compound `c1ccc(-c2cc(NCCN3CCCCC3)c3ccccc3n2)cc1` yielded a solubility (kinetic) above 49.7 µg/mL.

Regarding `NC(=O)CCSC(=S)N1CCOCC1`, the kinetic solubility is above 35.1 µg/mL.

The compound `CCN(CC)CCCNC(=O)/C=C/C(=O)O` came in with a solubility (kinetic) of 31.2 µg/mL (≈ 137 µM).

For `COc1ccccc1NC(=O)c1cc[n+]([O-])cc1`, the kinetic solubility was above 36.6 µg/mL.

Take `COC(=O)c1cc(C(=O)OCC(=O)N2CCCCC2)cc([N+](=O)[O-])c1`: the kinetic solubility was above 52.5 µg/mL.

Consider `O=C(CCNC(=O)c1ccco1)Nc1nc(-c2ccccc2)cs1`, for which the solubility (kinetic) turned out to be 8.5 µg/mL (≈ 24.9 µM).

The compound `CCc1cc(=O)oc2c(C)c(OC(C)C(=O)N3CCC[C@@H]3C(=O)O)ccc12` (some centres not stated) displayed a kinetic solubility above 56 µg/mL.

`O=C(COC(=O)c1ccccc1Br)NCC1CCCO1` (configuration not stated) came in with a solubility (kinetic) above 51.3 µg/mL.

`COc1ccccc1C(=O)Nc1c[nH]c(=O)[nH]c1=O` gave a solubility (kinetic) of 3.4 µg/mL (≈ 13 µM).

For `CCc1cccc(NC(=S)Nc2cccc3ccccc23)c1`, the solubility (kinetic) stood at 3.8 µg/mL (≈ 12.4 µM).

For `C/C(=N\n1c(C)nc2ccccc2c1=O)c1ccc(C)o1`, the kinetic solubility is above 42.2 µg/mL.

`COc1ccc(S(=O)(=O)NCCN2CCNC2=O)cc1OC` displayed a kinetic solubility of 47.9 µg/mL (≈ 145 µM).

Regarding `COc1ccc(NC(=O)COC(=O)C2CCN(S(=O)(=O)c3cccs3)CC2)cc1OC`, the kinetic solubility was determined as 47.1 µg/mL (≈ 101 µM).

Consider `CS(=O)(=O)N(CC(=O)N1CCCC1)c1ccc(Cl)cc1`, for which the solubility (kinetic) was above 47.5 µg/mL.

`CC12CC3(C)CC(C)(C1)CC(C(N)=O)(C2)C3` displayed a solubility (kinetic) of 31 µg/mL (≈ 140 µM).

In turn, `O=[N+]([O-])c1ccc(OCCn2cnc3ccccc32)cc1` showed a solubility (kinetic) of 7.6 µg/mL (≈ 26.8 µM). This solubility kinetic is about 4.1-fold lower than that of the compound before.

On to `O=C(CSc1nnc(C2CC2)n1-c1ccccc1)NC1CCS(=O)(=O)C1` (configuration not stated), for which the solubility (kinetic) is above 58.9 µg/mL.

These data come from PubChem BioAssay AID1996.
